Measured values as given in patent US20140315797A1, “Novel N-Terminally Modified Insulin Derivatives” (priority 2010, published 2014).
Read-outs that look alike come from different tables or passages of the source. Starred links: 1 amine or outer side, 2 acyl side, 3 side chain; linkers in the order of their positions; H or OH if unused. Positions of bridges follow the written chain, without caps; N, C: chain ends. Groups on a side chain read outwards from the residue. Chains are numbered I, II in the order given. No end group written: not given here. *: point of attachment. Phe(Nα-CONH2) = NC(=O)N[C@@H](Cc1ccccc1)C(=O)*; C20 diacid = O=C(O)CCCCCCCCCCCCCCCCCCC(=O)*; C18 diacid = O=C(O)CCCCCCCCCCCCCCCCC(=O)*; C16 diacid = O=C(O)CCCCCCCCCCCCCCC(=O)*; NMe2Phe = CN(C)[C@@H](Cc1ccccc1)C(=O)*; γGlu = O=C(O)[C@H](CCC(=O)[*:2])N[*:1]; X1 = CCN(CC)[C@@H](Cc1ccccc1)C(=O)*; Hydantoyl = NC(=O)NCC(=O)*; AEEA = NCCOCCOCC(=O)O; Me2Gly = CN(C)CC(=O)*; X2 = CCN(CC)CC(=O)*

What was measured:
primary rat adipocytes = assay: Lipogenesis in rat adipocytes; type: cell-based; settings: relative potency vs human insulin, unit %
Method: As a measure of in vitro potency of the insulins of the invention, lipogenesis can be used.
Primary rat adipocytes are isolated from the epididymale fat pads and incubated with 3H-glucose in buffer containing e.g. 0.1% fat free HSA and either standard (human insulin, HI) or insulin of the invention. The labelled glucose is converted into extractable lipids in a dose dependent way, resulting in full dose response curves.

[1] = biological target: T1, human insulin receptor (IR-A) (Homo sapiens, UniProt P06213); assay: Insulin receptor affinity, SPA antibody capture assay, 0% HSA; type: binding; settings: relative to affinity of human insulin
Method: (§1) The affinity of the acylated insulin analogues of this invention for the human insulin receptor is determined by a SPA assay (Scintillation Proximity Assay) microtiterplate antibody capture assay. SPA-PVT antibody-binding beads, anti-mouse reagent (Amersham Biosciences, Cat No. PRNQ0017) are mixed with 25 ml of binding buffer (100 mM HEPES pH 7.8; 100 mM sodium chloride, 10 mM MgSO4, 0.025% Tween-20). Reagent mix for a single Packard Optiplate (Packard No. 6005190) is composed of 2.4 μl of a 1:5000 diluted purified recombinant human insulin receptor (either with or without exon 11), an amount of a stock solution of A14Tyr[^125I]-human insulin corresponding to 5000 cpm per 100 μl of reagent mix, 12 μl of a 1:1000 dilution of F12 antibody, 3 ml of SPA-beads and binding buffer to a total of 12 ml. A total of 100 μl reagent mix is then added to each well in the Packard Optiplate and a dilution series of the insulin derivative is made in the Optiplate from appropriate samples. The samples are then incubated for 16 hours while gently shaken. The phases are the then separated by centrifugation for 1 min and the plates counted in a Topcounter. The binding data were fitted using the nonlinear regression algorithm in the GraphPad Prism 2.01 (GraphPad Software, San Diego, Calif.) and affinities are expressed relative (in percentage (%)) to the affinity of human insulin.

[2] = biological target: T1, human insulin receptor (IR-A); settings: relative to affinity of human insulin; […] HSA in binding buffer
Method: as §1
A related assay is also used wherein the binding buffer also contains 1.5% HSA in order to mimic physiological conditions

[3] = Chemical stability of insulin analogues formulated in lipid formulations (UPLC purity, SEC HMWP); type: physicochemical; settings: lipid formulation, 25° C.
Method: Chemical stability of insulin analogues formulated in lipid formulations was assessed according to the protocol described here.
Composition of the formulation: […]
Insulin to be tested (75 μM)
The insulin to be tested (lyophilised from pH 7.5) is dissolved in propylenglycol in the dark for 16 hours. Diglycerol caprylate is added ad the mixture is stirred. Tween 20 is added and the mixture is stirred for 5 minutes. The mixture is gently agitated until it is homogeneous.
Extraction-mix: 1-butanol+0.1% (w/w) Tween80, 0.1M Na2HPO4/NaH2PO4 pH 7.0 • 1. The formulations are allowed to reach room temperature. • 2. To each Eppendorf tube 20 μl of the formulations are added. • 3. Add 490 μl 1-butanol followed by addition of 990 μl of the phosphate buffer. Vortex and incubate at RT for 30 min. • 4. Vortex again and centrifuge at RT at 14000 rpm for 20 min. Analyse the bottom aqueous phase for purity and HMWP formation.
Alternatively another extraction method can be used: • 1. The formulations are allowed to reach room temperature. • 2. To each Eppendorf tube 50 μl of the formulations are added. • 3. Add 950 μl of extraction buffer. Vortex well. Immediately after, load 800 μl (2×400 μl) for purification on the spin column. See spin protocol below. Ion Exchange on Q Spin Columns from Sartorius
(In the following all spin steps are for 5 min at 2000×g.) • 1. Apply 400 μl equilibration buffer to each spin column, and spin. Discard the flow-through. • 2. Apply 2×400 μl of each extracted sample. Spin the column between each application. Discard the flow-through. • 3. Apply 400 μl washing buffer to wash each spin column, and spin. Discard the wash. • 4. Apply 400 μl elution buffer to each spin column, and spin. Analyse the elution for purity and HMWP formation
Column: Waters BEH Shield RP18 UPLC column (2.1×100 mm, 1.7 μm)
Buffer A: 0.09M di-ammonium hydrogen phosphate pH 3.0, 10% (v/v) acetonitrile
Buffer B: 90% acetonitrile.
Column: Waters Insulin HMWP SEC column
Buffer: 500 mM NaCl, 10 mM NaH2PO4, 5 mM H3PO4, 50% (v/v) 2-propanol

duodenum lumen enzymes [4] = assay: Degradation of insulin analogs using duodenum lumen enzymes; settings: degradation half time divided by that of reference insulin; rat duodenum enzymes, pH 7.4, 37° C.
Method: (§2) Degradation of insulin analogs using duodenum lumen enzymes (prepared by filtration of duodenum lumen content) from SPD rats. The assay is performed by a robot in a 96 well plate (2 ml) with 16 wells available for insulin analogs and standards. Insulin analogs ˜15 μM are incubated with duodenum enzymes in 100 mM Hepes, pH=7.4 at 37° C., samples are taken after 1, 15, 30, 60, 120 and 240 min and reaction quenched by addition of TFA. Intact insulin analogs at each point are determined by RP-HPLC. Degradation half time is determined by exponential fitting of the data and normalized to half time determined for the reference insulins, A14E, B25H, desB30 human insulin or human insulin in each assay. The amount of enzymes added for the degradation is such that the half time for degradation of the reference insulin is between 60 min and 180 min.

duodenum lumen enzymes [5] = settings: pH 7.4
Method: as §2

T1 sequence (P06213 28-746 isoform P06213-2 limits assumed): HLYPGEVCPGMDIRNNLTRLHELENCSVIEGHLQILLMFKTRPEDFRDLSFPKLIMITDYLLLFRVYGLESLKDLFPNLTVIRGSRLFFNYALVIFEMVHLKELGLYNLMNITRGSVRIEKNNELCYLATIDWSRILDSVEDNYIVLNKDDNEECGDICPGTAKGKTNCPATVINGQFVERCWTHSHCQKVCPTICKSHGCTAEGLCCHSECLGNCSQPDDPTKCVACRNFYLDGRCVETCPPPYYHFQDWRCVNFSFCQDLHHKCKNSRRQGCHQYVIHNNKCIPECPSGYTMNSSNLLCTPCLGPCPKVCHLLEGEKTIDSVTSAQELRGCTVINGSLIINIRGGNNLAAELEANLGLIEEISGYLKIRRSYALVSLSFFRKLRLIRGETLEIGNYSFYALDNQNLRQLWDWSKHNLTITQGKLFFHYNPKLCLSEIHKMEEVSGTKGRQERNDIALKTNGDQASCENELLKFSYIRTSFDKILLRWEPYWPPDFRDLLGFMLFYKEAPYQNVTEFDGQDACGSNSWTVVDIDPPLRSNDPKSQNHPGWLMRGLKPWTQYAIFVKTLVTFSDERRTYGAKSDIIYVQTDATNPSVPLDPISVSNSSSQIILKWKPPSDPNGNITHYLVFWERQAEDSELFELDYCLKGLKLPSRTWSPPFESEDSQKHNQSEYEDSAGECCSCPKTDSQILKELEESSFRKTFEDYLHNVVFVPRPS
T1 sequence (P06213 763-1382 partner limits assumed): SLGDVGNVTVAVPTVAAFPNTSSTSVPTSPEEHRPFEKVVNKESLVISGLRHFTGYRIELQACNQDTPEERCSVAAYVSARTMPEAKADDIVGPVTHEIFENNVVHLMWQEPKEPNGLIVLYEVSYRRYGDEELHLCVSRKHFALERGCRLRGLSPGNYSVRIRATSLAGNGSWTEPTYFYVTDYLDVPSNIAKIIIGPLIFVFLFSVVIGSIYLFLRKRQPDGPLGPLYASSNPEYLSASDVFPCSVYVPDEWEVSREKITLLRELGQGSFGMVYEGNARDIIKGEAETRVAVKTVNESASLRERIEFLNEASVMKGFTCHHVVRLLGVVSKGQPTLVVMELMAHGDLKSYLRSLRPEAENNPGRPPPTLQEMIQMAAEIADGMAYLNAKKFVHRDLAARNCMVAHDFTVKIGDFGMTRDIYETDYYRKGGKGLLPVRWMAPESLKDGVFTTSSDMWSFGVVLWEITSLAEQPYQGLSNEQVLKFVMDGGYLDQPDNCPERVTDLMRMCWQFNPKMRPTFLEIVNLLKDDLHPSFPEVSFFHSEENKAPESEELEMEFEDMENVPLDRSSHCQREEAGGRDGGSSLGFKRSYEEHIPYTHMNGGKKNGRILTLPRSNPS

Substance	Relative IR-A affinity (@ 0% HSA) (%) [1] [%]	Relative IR-A affinity (@ […] HSA) (%)e [2] [%]	Duodenum degradation. Relative stability vs. A14E, B25H, desB30 human insulin (duodenum lumen enzymes [4])	Duodenum degradation. Relative stability vs. A14E, B25H, desB30 human insulin (duodenum lumen enzymes [5])	other results
A1(N,N-Dimethyl), A14E, B1(N,N-dimethyl), desB27, B29K(N^εoctadecanedioyl-gGlu-2xOEG), desB30 human insulin [Example 6]	17.0	0.98	–	–	Lipogenesis in rat adipocytres (@ 0.1% HSA) rel. to human insulin (primary rat adipocytes): 0.60%
A1(N^αDiglycolyl), A14E, B1(N^αdiglycolyl), B25H, desB27, B29K(N^εoctadecanedioyl-gGlu-2xOEG), desB30 human insulin [Example 59]	–	–	–	–	HMWP formed (%) 2 weeks [3]: 0.1%; Impurities formed (%) 2 weeks [3]: 2.4%
I: NMe2Phe-VNQHLCGSHLVEALHLVCGERGFHYTPK([γGlu-C16 diacid]) / II: Me2Gly-IVEQCCTSICSLEQLENYCN (disulfide I:6-II:6, I:18-II:19, II:5-II:10) [Example 3, A1(N^α,N^α-Dimethyl), A14E, B1(N^α, N^α-dimethyl), B16H, B25H, B29K(N^εhexadecanedioyl-gGlu), desB30 human insulin]	0.6	0.06	3.1	–	–
I: X1-VNQHLCGSHLVEALYLVCGERGFHYTPK([AEEA-AEEA-γGlu-C18 diacid]) / II: X2-IVEQCCTSICSLEQLENYCN (disulfide I:6-II:6, I:18-II:19, II:5-II:10) [Example 2, A1(N^α,N^α-Diethyl), A14E, B1(N^α, N^α-diethyl), B25H, B29K(N^εOctadecanedioyl-gGlu-2xOEG), desB30 human insulin]	1.7	0.05	–	0.8	HMWP formed (%) 2 weeks [3]: 0.0%; Impurities formed (%) 2 weeks [3]: 1.7%; HMWP formed (%) 4 weeks ([3]; 4 weeks): 0.1%; Impurities formed (%) 4 weeks ([3]; 4 weeks): 3.2%
I: {Phe(Nα-CONH2)}-VNQHLCGSHLVEALHLVCGERGFFYPK([AEEA-AEEA-γGlu-C20 diacid]) / II: Hydantoyl-IVEQCCTSICSLEQLENYCN (disulfide I:6-II:6, I:18-II:19, II:5-II:10) [Example 22]	–	–	7.7	–	–
I: {Phe(Nα-CONH2)}-VNQHLCGSHLVEALHLVCGERGFHYTPK([AEEA-AEEA-γGlu-C20 diacid]) / II: Hydantoyl-IVEQCCTSICSLEQLENYCN (disulfide I:6-II:6, I:18-II:19, II:5-II:10) [Example 16, A1(N^α-Carbamoyl), A14E, B1(N^α-Carbamoyl), B16H, B25H, B29K(N^εeicosanedioyl-gGlu-2xOEG), desB30 human insulin]	0.1	0.01	0.4	–	–
I: {Phe(Nα-CONH2)}-VNQHLCGSHLVEALYLVCGERGFFYPK([γGlu-C18 diacid]) / II: Hydantoyl-IVEQCCTSICSLEQLENYCN (disulfide I:6-II:6, I:18-II:19, II:5-II:10) [Example 23, A1(N^αCarbamoyl), A14E, B1(N^αCarbamoyl), desB27, B29K(N^εoctadecanedioyl-gGlu), desB30 human insulin]	2.7	0.04	–	6.6	–
I: {Phe(Nα-CONH2)}-VNQHLCGSHLVEALYLVCGERGFFYPK([γGlu-C20 diacid]) / II: Hydantoyl-IVEQCCTSICSLEQLENYCN (disulfide I:6-II:6, I:18-II:19, II:5-II:10) [Example 21]	1.3	0.07	–	6.2	–
I: {Phe(Nα-CONH2)}-VNQHLCGSHLVEALYLVCGERGFHYPK([AEEA-AEEA-γGlu-C18 diacid]) / II: Hydantoyl-IVEQCCTSICSLEQLENYCN (disulfide I:6-II:6, I:18-II:19, II:5-II:10) [Example 18, A1(N^αCarbamoyl), A14E, B1(N^αCarbamoyl), B25H, desB27, B29K(N^εoctadecandioyl-gGlu-2xOEG), desB30 human insulin]	0.4	0.04	–	5.6	–
I: {Phe(Nα-CONH2)}-VNQHLCGSHLVEALYLVCGERGFHYPK([AEEA-AEEA-γGlu-C20 diacid]) / II: Hydantoyl-IVEQCCTSICSLEQLENYCN (disulfide I:6-II:6, I:18-II:19, II:5-II:10) [Example 28, A1G(N^αcarbamoyl), A14E, B1F(N^αcarbamoyl), B25H, desB27, B29K(N^εeicosanedioyl-gGlu-2xOEG), desB30 human insulin]	0.7	0.25	2.1	–	–
I: {Phe(Nα-CONH2)}-VNQHLCGSHLVEALYLVCGERGFHYTPK([AEEA-AEEA-γGlu-C20 diacid]) / II: Hydantoyl-IVEQCCTSICSLEQLENYCN (disulfide I:6-II:6, I:18-II:19, II:5-II:10) [Example 15, A1(N^αCarbamoyl), A14E, B1(N^αCarbamoyl), B25H, B29K(N^εeicosanedioyl-gGlu-2xOEG), desB30 human insulin]	0.2	0.02	0.6	–	–
I: {Phe(Nα-CONH2)}-VNQHLCGSHLVEALYLVCGERGFHYTPK([γGlu-C16 diacid]) / II: Hydantoyl-IVEQCCTSICSLEQLENYCN (disulfide I:6-II:6, I:18-II:19, II:5-II:10) [Example 13, A1(N^αCarbamoyl), A14E, B1(N^αCarbamoyl), B25H, B29K(N^εhexadecanedioyl-gGlu), desB30 human insulin]	0.3	0.02	–	1.5	–
I: {Phe(Nα-CONH2)}-VNQHLCGSHLVEALYLVCGERGFHYTPK([γGlu-C20 diacid]) / II: Hydantoyl-IVEQCCTSICSLEQLENYCN (disulfide I:6-II:6, I:18-II:19, II:5-II:10) [Example 14, A1(N^αCarbamoyl), A14E, B1(N^αCarbamoyl), B25H, B29K(Feicosanedioyl-gGlu), desB30 human insulin]	0.2	0.00	–	0.9	–
